Laboratory results as given in patent US7439251B2, “Methods and compositions for treatment of central and peripheral nervous system disorders and novel compounds useful therefor” (Israel Institute for Biological Research, priority 2002, dated 2008).
Numbering of substitutions follows the chain as printed. Where two headings read alike, the source gives them in different places.

Experiments:
M1 mAChR = biological target: T1, M1 mAChR (Rattus norvegicus, UniProt P08482); assay: α-APPs secretion in cell cultures stably transfected with M1 mAChR; type: cell-based; conditions: for α-APPs secretion (% of max CCh): maximal response vs 10^−4 M carbachol
T1 construct: expressed in transfected cells
T1 sequence (P08482 1-460): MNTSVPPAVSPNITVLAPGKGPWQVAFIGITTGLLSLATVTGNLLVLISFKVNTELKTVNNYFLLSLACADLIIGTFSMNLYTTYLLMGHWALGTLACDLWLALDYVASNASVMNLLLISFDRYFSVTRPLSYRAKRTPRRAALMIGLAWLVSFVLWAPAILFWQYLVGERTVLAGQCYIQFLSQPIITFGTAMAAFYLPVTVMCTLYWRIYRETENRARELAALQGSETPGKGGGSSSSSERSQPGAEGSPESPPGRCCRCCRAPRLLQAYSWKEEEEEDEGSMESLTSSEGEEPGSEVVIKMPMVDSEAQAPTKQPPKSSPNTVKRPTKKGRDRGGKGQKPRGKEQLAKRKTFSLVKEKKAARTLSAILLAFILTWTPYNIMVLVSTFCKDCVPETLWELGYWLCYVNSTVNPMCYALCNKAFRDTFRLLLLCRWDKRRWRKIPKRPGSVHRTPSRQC
Experimental: Cells were plated in 6 well culture plates and used at the age of 3-5 days after plating. […] Cells exposed to medium alone are referred as controls.
Cell supernatants were collected into Eppendorff tubes containing a cocktail of protease intubitors (5 units/ml aprotinin, […], 5 mg/ml leupeptin and 10^−4 M Phenylmethylsulfonylfluoride (PMSF, a protease inhibitor); Sigma, USA). The collected media were concentrated with Centricon tubes (Amicon, Beverly, Mass., USA) and kept frozen for α-APPs secretion determination. Equal amounts of protein (50-100 μg) were loaded and separated on 10% sodium dodecyl sulfate-polyacrylamide gel electrophoresis (SDS-PAGE) Followed by western blotting onto nitrocellulose membrane, blocked by fat-free milk, and probed for 24 hours at 4° C., with anti-Alzheimer's precursor protein, A4 monoclonal antibody 22C11 (0.25 μg/ml; Boehringer Mannheim, Germany). The nitrocellulose membranes were washed and incubated for 2 hours at room temperature with peroxidase-linked goat anti-mouse IgG antibodies (Jackson Immunoresearch, USA), followed by extensive washout and staining with enhanced chemiluminescence detection system (Amersham). Quantitative evaluation of the immunoreactive bands, on the exposed films, was performed by video-imaging densitometry (Gel-aid software; Galai Co., Israel). APPs levels were expressed as x-fold increase over basal levels.

human M1 receptor = biological target: T2, human M1 receptor (Homo sapiens, UniProt P11229); assay: PI hydrolysis, human M1; type: cell-based
T2 construct: expressed in transfected cells
T2 sequence (P11229 1-460): T1 sequence (P08482 1-460) with V5A, S254T, S309P, K320R, G337A, V413I

[1] = Morris water maze in aged rats; type: in vivo, rat; conditions: for reversal learning: AF267B 1 mg/kg, AF292 1 and 0.5 mg/kg po
Excerpt: Old (22-24 months old) and young (three months old) Sprague-Dawley rats had been tested in the MWM.

[2] = Pharmacokinetic study in rats; type: in vivo, rat; conditions: for bioavailability: rat, plasma, po, Rats, read-out: Bioavailability (% F)
Excerpt: The results of the PK profile of AF292 in rats and Beagle dogs (overnight fasting; drug administered in water solution; gavage) are listed in Table 1.

[3] = system: rat pheochromocytoma cells transfected with the M1 mAChR
[4] = system: rat pheochromocytoma cells transfected with M1 mAChR; assay: Neurite outgrowth in rat pheochromocytoma cells transfected with M1 mAChR; type: cell-based; conditions: 24 hrs, without neurotrophins
Experimental: For determination of neurite outgrowth, cells plated in six-well plates were used 3-5 days after plating. Growth factors were added 1 day after plating and muscarinic agonists were added for the last 24 hrs.
Cells were observed under an inverted microscope. The percent of cells with neurite longer than cell diameter were scored in three random fields of several hundred cells from each well. Results were expressed as a percent of cells with neurites. Treatments were performed in triplicate cells. Both NGF (50 ng/ml) and EGF (100 ng/ml) were added 1 day after plating. Muscarinic agonists were added 24 hours before scoring.

[5] = Morris water maze in C57BL/10SnJ (small hippocampus) vs C57BL6J mice; type: in vivo; conditions: for reversal test, swimming speed: normal hippocampi mice, AF150(S) 0.5 mg/kg, AF267B 1 mg/kg
Experimental: C57BL/10SnJ (B10) mice were selected due to their small hippocampi and decreased number of hippocampal pyramidal neurons; the cell loss seemed to be associated with poor spatial learning.
Each group of mice was randomly divided into 7 treatment groups (n=12-14/group). […] All tested compounds and saline were administered once a day for 4 days before starting the behavioral testing, and then for the duration of the 5-day experiment, 30 minutes before testing.
Training: Each mouse was trained for four consecutive days, four trials (one block) per day, in which the platform position remained constant and was located in the center of the southeast quadrant of the pool. Within each block of four trials, each mouse started at each of the starting locations, but the sequence of locations was randomly selected. A trial consisted of placing a mouse by hand into the water facing the wall of the pool at one of four starting locations, north, south, east or west, around the pool's perimeter. Escape latency (the time to find the platform), path length (the distance traveled by the mouse) and speed (the swimming rate of the mouse) were recorded on each trial by the monitoring system.
For each mouse, the path length, escape latency, and swimming speed of the four trials on each of the 4 training days were grouped into blocks (one block for each day). […] Specific comparisons were performed, using the simple main effects contrasts analysis, which is specifically suited for testing significant interactions.
Transfer test. During trial No. 17, on the fourth day, the platform was entirely removed from the pool (a probe trial). In this trial, the mouse was placed into the water for a limited period (30 s), and its spatial bias was measured by recording the relative distribution of escape latency and path length over the four quadrants of the pool.
Reversal test. During trials 18-21, on the fifth day, the platform position was changed to the northwest quadrant, opposite to the training quadrant Thus, during reversal learning, the platform location was moved relative to the configuration of objects within the room, but the pool occupied the same place within the room throughout the entire experiment. Testing of the […] and measures taken were the same as in training.
For each mouse, the escape latency, path length and swimming speed of the reversal test (trials No. 18-21) were grouped into one block.

[6] = mouse, in vivo
[7] = small hippocampus mice, both doses
[8] = small hippocampus mice, AF150(S) both doses, AF267B the higher dose
[9] = small hippocampus mice, AF compounds 0.5 and 1 mg/kg i.p., rivastigmine, nicotine 1 mg/kg i.p.
[10] = normal hippocampus mice, AF150(S) at 1 mg/kg

Structure (SMILES) | α-APPs secretion, comparison in words (M1 mAChR) | α-APPs secretion (% of max CCh) (M1 mAChR) [%] | PI turnover vs. CCh (as 100%) (human M1 receptor) [%] | reversal learning [1] | biovailability in rats [2] [%] | H2O2-induced toxicity [3] | cell death induced by β-A25-35 (MTT) [3] | Maximal neurite outgrowth response (percent of cells with neurites) [4] [%] | reversal test, swimming speed [5] | training, escape latency ([5]; normal hippocampus mice) | training, swimming speed ([5]; normal hippocampus mice) | training, swimming speed ([5]; small hippocampus mice) | transfer test, spatial bias ([5]; small hippocampus mice) | reversal test, escape latency [5, 7] | training, path length [5, 8] | training, escape latency [5, 9] | Tmax / peak in brain [6] [min] | also measured
CC[C@@H]1SC2(CCNCC2)NC1=O [AF292, (S)-2-Ethyl-1-thia-4,8-diaza-spiro[4.5]decan-3-one] | Equipotent with AF267B | 100 | ~35 | did not reach significance | 49 | protect the cells | significantly attenuated |  |  |  |  |  |  |  |  |  |  | probe trial, spatial bias ([1]; both doses (1 and 0.5 mg/kg po)): tendency for partial spatial bias; bioavailability ([2]; 10 mg/kg, p.o.): 49%; MTT assay against Aβ 25-35 & H2O2 in cell cultures transfected with rat M1 mAChR [3]: Equipotent with AF267B & CCh at 100
CC[C@@H]1SC2(CCN(C)CC2)NC1=O [AF267B, (S)-2-ethyl-8-methyl-1-thia-4,8-diaza-spiro[4.5]decan-3-one] | more efficacious and more potent than its racemate |  | ~66 | improved significantly the reversal learning |  | protect the cells | significantly attenuated | 60 | significantly decreased | did not significantly affect the escape latencies | had no such effect | enhanced the swimming speed in a dose dependent manner | complete spatial bias | improved the escape latency | positively affected the performance | positively affected the training performance | 20 to 30 | α-APPs secretion, fold increase over control (M1 mAChR; 10^−4 M, 1 hour): about 6 fold; swimming ability [1]: no significant effect on the swimming ability; learning ([1]; 1 mg/kg): tendency for improvement; bioavailability ([2]; calculated for 2 mg/kg): 30%; time after dosing detected in the brain [6]: 2 to 240 min
CC1=NCC2(CCN(C)CC2)S1 [AF150(S), 2,8-Dimethyl-1-thia-3,8-diaza-spiro[4.5]dec-2-ene] |  | 50 |  |  | 31 | protect the cells | significantly attenuated | 30 | significantly decreased | increased the escape latencies | impaired the swimming speed | enhancing effect of AF150(S) was equal in both doses | complete spatial bias | improved the escape latency | positively affected the performance | positively affected the training performance | 1 to 10 | reversal test, escape latency ([5]; normal hippocampus mice, AF150(S) at 0.5 mg/kg): impaired the escape latency; reversal test, path length [5, 10]: impairment of reversal learning; transfer test, spatial bias [5, 10]: only a partial spatial bias; training, path length ([5]; normal hippocampus mice, AF150(S) only the higher dose): impaired the path length; brain penetration time ([6]; iv): 1 min
